Experimental data taken from patent US8318953B2, “Reactive coumarin derivatives and their use in cellular analyses” (AAT Bioquest, Inc., priority 2010, dated 2012).

Key:
intracellular esterases = test: Relative stability and cleavage by intracellular esterases
Source text: Chemically reactive enzyme substrate compounds will covalently attach to a corresponding functional group of cell components, forming the complexes of enzyme substrates-cell components or enzyme products-cell components. Using enzyme substrate compounds to label reactive sites on the surface of cells, in cell membranes or in intracellular compartments such as organelles, or in the cell's cytoplasm, permits the determination of their presence or quantity, accessibility, or their spatial and temporal distribution in the sample. […] Photoreactive enzyme substrates can be used similarly to photolabel components of the outer membrane of biological cells or as photo-fixable polar tracers for cells.

CPA cells = test: Absorption and emission spectra of cell lysates after incubating cells with the substrate; format: cell-based; conditions: CPA cells incubated with compound (5 μM) for 1 h, lysed with 1% Triton X-100; pH=9.0 buffer
Description: CPA cells are incubated with Compound ES1 (5 μM) for 1 h, and lysed with 1% Triton® X-100. The cell lysates from the enzymatic hydrolysis of Compound ES1 have a maximum absorption around 409 nm, which matches very well the 405 nm violet laser excitation of a typical flow cytometer.
CPA cells are incubated with Compound ES7 (5 μM) for 1 h, and lysed with 1% Triton® X-100. The cell lysates from the enzymatic hydrolysis of ES7 have a maximum absorption around 416 nm, which matches very well the 405 nm violet laser excitation of a typical flow cytometer.

Jurkat cells = test: Flow cytometric monitoring of cell proliferation after dye loading; format: cell-based; conditions: Jurkat cells loaded with 5 μM dye loading solution at 37° C. for 1 hour; flow cytometric analysis
Description: Compound ES 9 is dissolved in anhydrous DMSO to make 5 mM stock solution, and diluted in PBS buffer to make 5 μM dye loading solution. Jurkat cells are loaded with the dye loading solution of Compound ES9 at 37° C. for 1 hour. The cells are washed with PBS buffer to remove serum. The resulted cells are cultured and passed for flow cytometric analysis as desired. Compound ES9 is used to monitor cell proliferation of nine passages.
ES compounds are retained by cells and shared by the daughter cells at each division, resulting in multimodal flow cytometric ES staining histograms, with each cell generation clustering around half the fluorescence intensity of the previous one. ES compounds are dissolved in anhydrous DMSO, and the stock solutions are used promptly. To prepare the cell working solutions (from 1 to 100 μM) the DMSO stock solutions of ES compounds are diluted with Hanks and 20 mM Hepes buffer (HHBS, pH 7 with 0.02% PF-127). The Jurkat cells are treated with test compounds for a desired period of time, and centrifuged give 1-5×10^5 cells per tube. The cells are resuspended in 500 μL of the ES compound working solutions, and incubated at room temperature or 37° C. for 5 to 10 min. […] The fluorescence of ES compound staining are monitored at Ex/Em=405/450 nm, 405/500 nm or 405/550 nm with a fluorescence microscope or a flow cytometer.

SMILES	stability relative to Compound ES 18 (intracellular esterases)	also measured
CC(=O)OCOc1c(Cl)cc2cc(C(=O)ON3C(=O)CCC3=O)c(=O)oc2c1Cl [Compound 5]	more stable than Compound ES 18	
CC(=O)Oc1cc2oc(=O)c(-c3ccc(CCCCCC(=O)ON4C(=O)CCC4=O)s3)cc2cc1Cl [Compound 9]	more stable than Compound ES 18	
CC(=O)Oc1cc2oc(=O)c(-c3ccc(CCCCCC(=O)NCCN4C(=O)C=CC4=O)s3)cc2cc1Cl [Compound 10]	more stable than Compound ES 18	
CC(=O)Oc1cc2oc(=O)c(C(=O)ON3C(=O)CCC3=O)cc2cc1Cl [ES1]	more stable than Compound ES 18	maximum absorption of cell lysates from the enzymatic hydrolysis (CPA cells): around 409 nm
CC(=O)Oc1c(Cl)cc2cc(C(=O)NCCCCCN3C(=O)C=CC3=O)c(=O)oc2c1F [ES7]		maximum absorption of cell lysates from the enzymatic hydrolysis (CPA cells): around 416 nm
CC(=O)Oc1cc2oc(=O)c(-c3ccc(CCCCCC(=O)ON4C(=O)CCC4=O)s3)cc2cc1Cl [ES9]		passages over which cell proliferation is monitored (Jurkat cells): nine
CC(=O)Oc1c(F)cc2cc(C(=O)ON3C(=O)CCC3=O)c(=O)oc2c1F [ES18]		cleavage by intracellular esterases (intracellular esterases): cleaved by intracellular esterases more slowly
